The record followed here is ChEMBL document CHEMBL4507263, “Data for DCP probe BAY-474” (2021).

For experiment [1], the target named is Substance-P receptor (Homo sapiens) (UniProt P25103). The experiment in a line: Inhibition of Tachykinin NK1 at 10 µM in the Eurofins-Panlabs radioligand binding assay (Eurofins_assay_255520). The following applies: Compound concentration 10.0 uM. On the set-up: ligand concentration 0.8 nM.
Experiment [2] concerns the target Serine/threonine-protein kinase TAO2 (Homo sapiens) (UniProt Q9UL54). The experiment in a line: TAO2 (h) Millipore kinase activity assay. Conditions: Compound concentration 1.0 uM.
Experiment [3] has as its target Serine/threonine-protein kinase BRSK1 (Homo sapiens) (UniProt Q8TDC3). The experiment in a line: BrSK1 (h) Millipore kinase activity assay. The following applies: Compound concentration 1.0 uM.
Experiment [4] deals with Hepatocyte growth factor receptor (Homo sapiens, UniProt P08581). The experiment in a line: Cellular mechanistic assay using […] cells and p-MET. The format is cell-based, MKN-45.
The species named for a further experiment is Mus musculus. The experiment in a line: Inhibition of Phorbol Ester at 10 µM in the Eurofins-Panlabs radioligand binding assay (Eurofins_assay_264500). Also on record: ligand concentration 3 nM. The following applies: Compound concentration 10.0 uM.
For experiment [5], the target named is Activin receptor type-1B (Homo sapiens) (UniProt P36896). The experiment in a line: ALK4 (h) Millipore kinase activity assay. Conditions: Compound concentration 1.0 uM.
In experiment [6] the target is MAP kinase-activated protein kinase 3 (Homo sapiens) (UniProt Q16644). The experiment in a line: MAPKAP-K3 (h) Millipore kinase activity assay. The following applies: Compound concentration 1.0 uM.
In experiment [7] the target is Fibroblast growth factor receptor 3 (Homo sapiens) (UniProt P22607). The experiment in a line: FGFR3 (h) Millipore kinase activity assay. The following applies: Compound concentration 1.0 uM.
Chain of Fibroblast growth factor receptor 3 (Homo sapiens) (P22607 23-806 limits assumed): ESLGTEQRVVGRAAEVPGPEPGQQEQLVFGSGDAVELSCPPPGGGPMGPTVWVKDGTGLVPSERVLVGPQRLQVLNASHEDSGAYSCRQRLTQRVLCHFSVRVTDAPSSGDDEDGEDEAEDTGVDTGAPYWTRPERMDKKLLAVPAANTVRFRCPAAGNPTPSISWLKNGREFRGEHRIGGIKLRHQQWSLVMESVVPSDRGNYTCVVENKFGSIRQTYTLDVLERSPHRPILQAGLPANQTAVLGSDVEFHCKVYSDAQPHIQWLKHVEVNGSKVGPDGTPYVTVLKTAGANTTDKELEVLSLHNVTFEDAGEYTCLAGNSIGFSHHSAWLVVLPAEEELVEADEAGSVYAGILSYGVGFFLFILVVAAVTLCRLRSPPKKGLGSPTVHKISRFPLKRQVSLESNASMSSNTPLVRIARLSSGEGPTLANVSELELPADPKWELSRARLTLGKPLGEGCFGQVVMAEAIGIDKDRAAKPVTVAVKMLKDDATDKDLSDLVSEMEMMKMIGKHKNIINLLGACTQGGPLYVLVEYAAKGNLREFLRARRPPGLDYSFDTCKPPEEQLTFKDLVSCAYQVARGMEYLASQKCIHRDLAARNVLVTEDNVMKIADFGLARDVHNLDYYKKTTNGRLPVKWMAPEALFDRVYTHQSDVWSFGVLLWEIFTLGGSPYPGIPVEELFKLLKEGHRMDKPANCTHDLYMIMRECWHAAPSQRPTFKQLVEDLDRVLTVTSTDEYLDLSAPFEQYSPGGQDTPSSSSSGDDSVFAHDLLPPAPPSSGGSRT
For experiment [8], the target named is Serine/threonine-protein kinase Nek3 (Homo sapiens) (UniProt P51956). The experiment in a line: NEK3 (h) Millipore kinase activity assay. The following applies: Compound concentration 1.0 uM.
In experiment [9] the target is Cysteinyl leukotriene receptor 1 (Homo sapiens) (UniProt Q9Y271). The experiment in a line: Inhibition of Leukotriene, Cysteinyl CysLT1 at 10 µM in the Eurofins-Panlabs radioligand binding assay (Eurofins_assay_250460). Also on record: ligand concentration 0.3 nM, non-specific ligand with concentration 0.3 µM Leukotriene D4, incubation time 30 min, incubation temperature 25 °C. The following applies: Compound concentration 10.0 uM.
Chain of Cysteinyl leukotriene receptor 1 (Homo sapiens) (Q9Y271 whole entry): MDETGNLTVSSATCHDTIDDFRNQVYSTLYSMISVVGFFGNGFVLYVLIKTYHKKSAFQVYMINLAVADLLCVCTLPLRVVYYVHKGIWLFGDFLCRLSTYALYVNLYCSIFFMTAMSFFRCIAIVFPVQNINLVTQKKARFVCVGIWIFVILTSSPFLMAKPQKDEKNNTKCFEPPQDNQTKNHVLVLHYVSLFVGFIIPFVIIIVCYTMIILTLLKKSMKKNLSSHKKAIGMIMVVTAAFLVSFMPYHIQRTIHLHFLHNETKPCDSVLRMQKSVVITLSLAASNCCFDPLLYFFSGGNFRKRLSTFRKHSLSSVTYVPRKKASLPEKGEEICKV

For experiment [10], the target named is Cannabinoid receptor 1 (Homo sapiens) (UniProt P21554). Conditions: Compound concentration 10.0 uM.
The target in experiment [11] is G protein-coupled receptor kinase 3 (Homo sapiens) (UniProt P35626). The following applies: Compound concentration 1000.0 nM.
Experiment [12] has as its target Serine/threonine-protein kinase TBK1 (Homo sapiens) (UniProt Q9UHD2). Conditions: Compound concentration 1000.0 nM.
Experiment [13] addresses Dual specificity tyrosine-phosphorylation-regulated kinase 1A (Homo sapiens) (UniProt Q13627). The following applies: Compound concentration 1000.0 nM.
The test system of experiment [14] is Phosphatidylinositol 4,5-bisphosphate 3-kinase catalytic subunit alpha isoform (Homo sapiens), P42336 [I800L]. The following applies: Compound concentration 1000.0 nM.
Chain of Phosphatidylinositol 4,5-bisphosphate 3-kinase catalytic subunit alpha isoform (Homo sapiens), P42336 [I800L] (P42336 whole entry I800L, canonical isoform): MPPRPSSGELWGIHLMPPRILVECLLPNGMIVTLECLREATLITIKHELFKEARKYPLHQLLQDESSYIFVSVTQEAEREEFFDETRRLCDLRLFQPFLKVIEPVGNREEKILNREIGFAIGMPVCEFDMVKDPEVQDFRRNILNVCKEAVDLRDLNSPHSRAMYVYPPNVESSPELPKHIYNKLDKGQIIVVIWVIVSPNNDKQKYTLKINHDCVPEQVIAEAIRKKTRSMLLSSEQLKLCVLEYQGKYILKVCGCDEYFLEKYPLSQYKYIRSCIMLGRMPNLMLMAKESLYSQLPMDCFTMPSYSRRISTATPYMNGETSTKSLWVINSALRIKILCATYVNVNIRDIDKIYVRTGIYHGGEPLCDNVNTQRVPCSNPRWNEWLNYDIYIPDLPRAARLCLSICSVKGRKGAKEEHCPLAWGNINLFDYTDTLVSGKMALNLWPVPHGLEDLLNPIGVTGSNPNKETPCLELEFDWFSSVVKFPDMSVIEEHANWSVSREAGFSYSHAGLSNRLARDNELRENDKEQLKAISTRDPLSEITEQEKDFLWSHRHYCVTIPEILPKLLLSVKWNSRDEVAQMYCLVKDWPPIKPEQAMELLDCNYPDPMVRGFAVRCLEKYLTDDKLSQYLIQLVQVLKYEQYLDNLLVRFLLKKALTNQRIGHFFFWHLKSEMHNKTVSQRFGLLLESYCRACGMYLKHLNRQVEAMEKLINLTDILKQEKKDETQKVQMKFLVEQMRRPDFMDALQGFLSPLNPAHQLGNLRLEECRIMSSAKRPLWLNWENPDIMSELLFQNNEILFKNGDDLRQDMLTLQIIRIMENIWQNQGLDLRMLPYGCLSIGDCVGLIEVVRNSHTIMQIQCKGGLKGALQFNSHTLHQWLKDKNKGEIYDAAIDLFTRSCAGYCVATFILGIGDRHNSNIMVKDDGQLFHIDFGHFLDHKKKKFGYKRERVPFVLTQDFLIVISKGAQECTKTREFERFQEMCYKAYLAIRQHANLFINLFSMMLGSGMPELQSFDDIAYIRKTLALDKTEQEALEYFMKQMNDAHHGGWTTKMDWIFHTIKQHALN
The target in experiment [15] is Mitogen-activated protein kinase kinase kinase 9 (Homo sapiens) (UniProt P80192). Conditions: Compound concentration 1000.0 nM.
The target of experiment [16] is Ephrin type-B receptor 2 (Homo sapiens) (UniProt P29323). The following applies: Compound concentration 1000.0 nM.
Experiment [17] addresses SRSF protein kinase 1 (Homo sapiens) (UniProt Q96SB4). Conditions: Compound concentration 1000.0 nM.
Experiment [18] addresses Tyrosine-protein kinase SYK (Homo sapiens) (UniProt P43405). The following applies: Compound concentration 1000.0 nM.
Experiment [19] deals with Ephrin type-A receptor 7 (Homo sapiens) (UniProt Q15375). The following applies: Compound concentration 1000.0 nM.
Experiment [20] concerns the target Phosphatidylinositol 4-phosphate 3-kinase C2 domain-containing subunit beta (Homo sapiens) (UniProt O00750). Conditions: Compound concentration 1000.0 nM.
Experiment [21] has as its target Activin receptor type-2B (Homo sapiens) (UniProt Q13705). The following applies: Compound concentration 1000.0 nM.
For experiment [22], the target named is Bone morphogenetic protein receptor type-2 (Homo sapiens) (UniProt Q13873). The following applies: Compound concentration 1000.0 nM.
For experiment [23], the target named is Tyrosine-protein kinase JAK1 (Homo sapiens) (UniProt P23458). The following applies: Compound concentration 1000.0 nM.
In experiment [24] the target is Vascular endothelial growth factor receptor 3 (Homo sapiens) (UniProt P35916). The following applies: Compound concentration 1000.0 nM.
The target of experiment [25] is Mitogen-activated protein kinase 12 (Homo sapiens) (UniProt P53778). The following applies: Compound concentration 1000.0 nM.
The target in experiment [26] is Activated CDC42 kinase 1 (Homo sapiens) (UniProt Q07912). The following applies: Compound concentration 1000.0 nM.
Chain of Activated CDC42 kinase 1 (Homo sapiens) (Q07912 whole entry, looked up): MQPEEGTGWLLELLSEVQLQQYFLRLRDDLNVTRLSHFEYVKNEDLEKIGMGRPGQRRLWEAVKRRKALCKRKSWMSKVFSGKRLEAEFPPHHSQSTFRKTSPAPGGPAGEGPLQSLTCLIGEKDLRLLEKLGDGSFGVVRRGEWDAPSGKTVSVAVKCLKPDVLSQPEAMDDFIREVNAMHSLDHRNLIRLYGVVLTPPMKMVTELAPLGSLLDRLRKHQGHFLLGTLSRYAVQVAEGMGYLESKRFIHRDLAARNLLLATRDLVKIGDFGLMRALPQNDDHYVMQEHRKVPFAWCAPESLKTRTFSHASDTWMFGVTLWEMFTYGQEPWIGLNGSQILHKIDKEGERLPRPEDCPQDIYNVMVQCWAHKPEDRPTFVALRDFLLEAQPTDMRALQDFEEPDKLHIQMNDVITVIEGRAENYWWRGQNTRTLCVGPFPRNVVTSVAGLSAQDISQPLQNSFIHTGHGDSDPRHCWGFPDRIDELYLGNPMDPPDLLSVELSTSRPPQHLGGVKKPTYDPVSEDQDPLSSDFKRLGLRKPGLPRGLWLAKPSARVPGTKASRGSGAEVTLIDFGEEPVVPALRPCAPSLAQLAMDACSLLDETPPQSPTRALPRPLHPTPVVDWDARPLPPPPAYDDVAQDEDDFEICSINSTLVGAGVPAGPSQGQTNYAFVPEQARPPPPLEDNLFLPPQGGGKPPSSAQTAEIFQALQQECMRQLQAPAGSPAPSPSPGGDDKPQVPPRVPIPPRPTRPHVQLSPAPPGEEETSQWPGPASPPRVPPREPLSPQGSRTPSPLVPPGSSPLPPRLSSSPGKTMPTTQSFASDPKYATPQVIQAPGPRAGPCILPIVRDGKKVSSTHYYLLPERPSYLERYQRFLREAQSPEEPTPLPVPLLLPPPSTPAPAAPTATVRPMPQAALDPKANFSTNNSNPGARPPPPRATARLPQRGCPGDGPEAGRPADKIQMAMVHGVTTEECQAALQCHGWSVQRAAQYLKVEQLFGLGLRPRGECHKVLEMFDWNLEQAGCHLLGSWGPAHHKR
Experiment [27] deals with GABA-A receptor; anion channel (Rattus norvegicus) (UniProt O09028+P15431+P18506+P18508+P19969+P20236+P23574+P23576+P28471+P28473+P30191+P62813+P63079+P63138+Q91ZM7+Q9ES14). Conditions: Compound concentration 10.0 uM.
Experiment [28] deals with Mitogen-activated protein kinase kinase kinase 5 (Homo sapiens) (UniProt Q99683). Conditions: Compound concentration 1000.0 nM.
Experiment [29] has as its target Calcium/calmodulin-dependent protein kinase kinase 1 (Homo sapiens) (UniProt Q8N5S9). The following applies: Compound concentration 1000.0 nM.
The target of experiment [30] is Serine/threonine-protein kinase N1 (Homo sapiens) (UniProt Q16512). The following applies: Compound concentration 1000.0 nM.
Experiment [31] deals with Macrophage colony-stimulating factor 1 receptor (Homo sapiens) (UniProt P07333). The following applies: Compound concentration 1000.0 nM.
The target of experiment [32] is Serine/threonine-protein kinase Nek11 (Homo sapiens) (UniProt Q8NG66). Conditions: Compound concentration 1000.0 nM.
Chain of Serine/threonine-protein kinase Nek11 (Homo sapiens) (Q8NG66 whole entry): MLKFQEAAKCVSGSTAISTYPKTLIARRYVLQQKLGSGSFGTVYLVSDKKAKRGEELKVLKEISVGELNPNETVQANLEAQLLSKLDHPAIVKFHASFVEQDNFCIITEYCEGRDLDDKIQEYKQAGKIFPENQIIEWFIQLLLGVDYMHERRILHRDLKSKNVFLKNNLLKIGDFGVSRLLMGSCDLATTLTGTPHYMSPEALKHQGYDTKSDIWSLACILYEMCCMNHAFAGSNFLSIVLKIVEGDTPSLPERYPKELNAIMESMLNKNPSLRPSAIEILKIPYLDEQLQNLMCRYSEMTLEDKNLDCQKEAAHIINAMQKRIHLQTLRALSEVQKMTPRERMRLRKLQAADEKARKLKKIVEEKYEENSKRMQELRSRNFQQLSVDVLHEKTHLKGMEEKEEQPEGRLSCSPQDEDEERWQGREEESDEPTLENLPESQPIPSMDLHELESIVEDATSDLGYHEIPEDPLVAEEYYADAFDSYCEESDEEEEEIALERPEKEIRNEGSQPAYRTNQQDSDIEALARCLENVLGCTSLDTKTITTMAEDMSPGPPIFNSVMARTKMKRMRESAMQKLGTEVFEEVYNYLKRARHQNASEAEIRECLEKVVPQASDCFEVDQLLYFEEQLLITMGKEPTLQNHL
Experiment [33] addresses Fibroblast growth factor receptor 3 (Homo sapiens) (UniProt P22607). Conditions: Compound concentration 1000.0 nM.
In experiment [34] the target is TGF-beta receptor type-1 (Homo sapiens) (UniProt P36897). Conditions: Compound concentration 1000.0 nM.
The target in experiment [35] is Protein kinase C theta type (Homo sapiens) (UniProt Q04759). Conditions: Compound concentration 1000.0 nM.
The target of experiment [36] is Serine/threonine-protein kinase 38 (Homo sapiens) (UniProt Q15208). Conditions: Compound concentration 1000.0 nM.
Experiment [37] addresses Mitogen-activated protein kinase 3 (Homo sapiens) (UniProt P27361). The following applies: Compound concentration 1000.0 nM.
Experiment [38] deals with Mitogen-activated protein kinase kinase kinase kinase 3 (Homo sapiens) (UniProt Q8IVH8). Conditions: Compound concentration 1000.0 nM.
Chain of Mitogen-activated protein kinase kinase kinase kinase 3 (Homo sapiens) (Q8IVH8 whole entry): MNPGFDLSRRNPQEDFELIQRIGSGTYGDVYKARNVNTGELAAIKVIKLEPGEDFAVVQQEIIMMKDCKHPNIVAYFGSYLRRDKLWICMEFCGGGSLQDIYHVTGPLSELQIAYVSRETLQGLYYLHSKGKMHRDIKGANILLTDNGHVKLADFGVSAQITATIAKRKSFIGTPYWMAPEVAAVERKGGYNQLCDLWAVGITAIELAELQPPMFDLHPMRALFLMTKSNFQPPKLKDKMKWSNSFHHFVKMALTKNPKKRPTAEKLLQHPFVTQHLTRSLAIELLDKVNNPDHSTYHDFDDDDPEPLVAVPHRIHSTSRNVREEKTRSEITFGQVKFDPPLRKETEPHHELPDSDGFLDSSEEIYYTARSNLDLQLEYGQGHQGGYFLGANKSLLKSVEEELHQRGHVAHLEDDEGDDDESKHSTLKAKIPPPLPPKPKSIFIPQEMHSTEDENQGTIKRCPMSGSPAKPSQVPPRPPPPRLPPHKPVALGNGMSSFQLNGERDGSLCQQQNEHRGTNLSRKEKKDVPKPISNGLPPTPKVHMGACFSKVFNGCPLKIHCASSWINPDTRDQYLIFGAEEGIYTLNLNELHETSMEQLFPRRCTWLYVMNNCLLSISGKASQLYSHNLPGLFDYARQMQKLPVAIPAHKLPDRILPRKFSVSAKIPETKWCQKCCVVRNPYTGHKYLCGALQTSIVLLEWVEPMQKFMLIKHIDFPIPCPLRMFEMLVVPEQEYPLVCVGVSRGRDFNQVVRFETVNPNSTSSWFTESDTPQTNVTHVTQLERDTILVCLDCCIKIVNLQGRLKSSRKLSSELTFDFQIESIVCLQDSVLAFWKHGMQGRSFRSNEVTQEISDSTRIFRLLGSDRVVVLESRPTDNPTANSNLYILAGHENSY
Experiment [39] has as its target Ribosomal protein S6 kinase alpha-5 (Homo sapiens) (UniProt O75582). The following applies: Compound concentration 1000.0 nM.
For experiment [40], the target named is Mitogen-activated protein kinase kinase kinase kinase 4 (Homo sapiens) (UniProt O95819). The following applies: Compound concentration 1000.0 nM.
The target of experiment [41] is Serine/threonine-protein kinase Nek9 (Homo sapiens) (UniProt Q8TD19). Conditions: Compound concentration 1000.0 nM.
Experiment [42] deals with Serine/threonine-protein kinase ULK2 (Homo sapiens) (UniProt Q8IYT8). The following applies: Compound concentration 1000.0 nM.

A word on the inhibition: it is the change of the read-out against control, counted positive when it falls. The term IC50 denotes the concentration at which inhibition is half-maximal.

Calls of active or inactive are those of the source. The calls are words filed in the database; no cut-off is given here.

Take `CC1=C(C#N)C(c2ccc3[nH]nc(C)c3c2)C(C#N)=C(C)N1` [BAY-474]: the inhibition was -4% in experiment [1]; -2% in experiment [2]; 9% in experiment [3]; 4% in the experiment filed under Mus musculus; 4% in experiment [5]; -5% in [6]. The inhibition in experiment [7] was 10%; in [8], -9%; in experiment [9], 8%; in [10] it was 17%. Besides, the IC50 in [4] is 2.9 nM (active).
As for `CC1=C(C#N)[C@@H](c2ccc3[nH]nc(C)c3c2)C(C#N)=C(c2ccc(Cl)cc2)N1` [BAY-827], the residual activity was 85.3% in experiment [11]; 58.7% in [12]; 100% in experiment [13]; 100% in experiment [14]; 90.4% in experiment [15]; 100% in experiment [16]. Moreover, the residual activity is 100% in [17]; 100% in [18]; 91.2% in experiment [19]; 100% in experiment [20]; 100% in experiment [21]; 100% in [22]. The residual activity is 100% in [23]; 89.5% in [24]; 58.6% in [25]; 100% in experiment [26]; 100% in [28]; 93.7% in experiment [29]. Moreover, the residual activity in experiment [30] is 91.4%; in experiment [31], 100%; in [32], 62.4%; in experiment [33] it was 91.2%; in experiment [34] it was 62.4%; in [35] it was 100%. In addition, the residual activity in experiment [36] is 92.3%; in [37] it was 100%; in [38], 100%; in [39], 100%; in [40] it was 100%; in experiment [41] it was 95.6%. Besides, the residual activity in experiment [42] is 100%. For the same molecule, the inhibition in experiment [27] was 16.9%.
